Molecules are shown by their SMILES.

The target of data set [1] is T1, hormone-sensitive lipase derived from a preparation of 3T3-cell lysate (Mus musculus, UniProt P54310).
T1 construct: hormone-sensitive lipase derived from a preparation of 3T3-cell lysate; endogenous in cells; host or cells: 3T3-L1 cell lysate
T1 sequence (P54310 1-759): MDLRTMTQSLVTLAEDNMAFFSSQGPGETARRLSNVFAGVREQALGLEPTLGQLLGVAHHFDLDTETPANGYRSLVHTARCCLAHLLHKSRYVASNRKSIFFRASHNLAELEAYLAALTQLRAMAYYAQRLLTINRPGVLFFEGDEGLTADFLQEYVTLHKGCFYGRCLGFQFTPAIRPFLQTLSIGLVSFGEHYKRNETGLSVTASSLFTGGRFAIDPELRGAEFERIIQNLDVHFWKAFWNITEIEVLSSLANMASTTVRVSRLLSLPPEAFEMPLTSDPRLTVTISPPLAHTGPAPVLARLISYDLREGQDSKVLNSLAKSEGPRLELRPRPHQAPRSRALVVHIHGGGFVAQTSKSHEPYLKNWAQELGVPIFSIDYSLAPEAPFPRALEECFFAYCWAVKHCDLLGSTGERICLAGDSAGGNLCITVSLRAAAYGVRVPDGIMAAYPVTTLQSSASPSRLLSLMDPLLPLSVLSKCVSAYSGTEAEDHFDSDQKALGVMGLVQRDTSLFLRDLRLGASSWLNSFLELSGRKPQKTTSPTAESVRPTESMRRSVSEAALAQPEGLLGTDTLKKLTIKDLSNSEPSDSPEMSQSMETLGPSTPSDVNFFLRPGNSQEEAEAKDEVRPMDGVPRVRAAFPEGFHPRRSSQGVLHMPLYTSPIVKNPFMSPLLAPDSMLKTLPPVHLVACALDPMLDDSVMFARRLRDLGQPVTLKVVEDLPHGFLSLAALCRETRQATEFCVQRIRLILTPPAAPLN
Nature of the data set: Inhibition of hormone-sensitive lipase from 3T3-L1 cell lysate on glycerol-stabilized triolein. In kind it is biochemical. The conditions noted are these: test compound 100 μM. How it is done:
Recombinant hormone-sensitive lipase protein isolated from a bacterial expression vector was pre-incubated with a compound of the invention (e.g., 100 μM) prior to the addition of substrate, emulsified triolein phosphatidylcholine/phosphatidylinositol (PC/PI), to initiate the reaction. At various time points, aliquots of the reaction were taken, and the level of glycerol used as an index of enzyme activity. Pharmacological specificity is determined by incubating test compound with other mammalian and non-mammalian lipase enzyme systems to assess inhibition of activity. The assay was conducted using triolein concentrations from 42 μM to 835 μM.
In a similar manner to that described in Example 4 above, 2α-benzoyloxy-4,5,7,8,11αH-eudesman-8,12-olide at 100 μM was evaluated for ability to activity of recombinant hormone-sensitive lipase and hormone-sensitive lipase derived from a preparation of 3T3-cell lysate on glycerol-stabilized triolein.

A word on the inhibition: it is the relative decrease from the control value, in per cent. A low value points to a weak effect. One may read the melting point as the temperature, or range, at which the solid turns liquid. `CC1C[C@H](OC(=O)c2ccccc2)C[C@]2(C)C[C@H]3OC(=O)[C@@H](C)[C@H]3CC12` (stereo partly drawn) [2α-benzoyloxy-4,5,7,8,11αH-eudesman-8,12-olide] gave a melting point of 181 to 183 °C. Besides, in data set [1] (triolein 30 μM), at 100 µM the inhibition was 63%. The molecule also gave an inhibition at 100 µM in data set [1] (triolein 67 μM) of 56%. In data set [1] (triolein 100 μM), this molecule returned an inhibition at 100 µM of 51%. The inhibition at 100 µM in data set [1] (triolein 201 μM) amounted to 41%. This molecule also showed an inhibition at 100 µM in data set [1] (triolein 400 μM) of 38%. For the same molecule, the inhibition at 100 µM in data set [1] (triolein 601 μM) turned out to be 30%. In data set [1] (triolein 800 μM), this molecule had an inhibition at 100 µM of 18%. This molecule gave an inhibition at 100 µM in data set [1] (triolein 1000 μM) of 15%.
